From ChEMBL document CHEMBL1135292, “A practical synthesis of (S) 3-tert-butoxycarbonylamino-2-oxo-2,3,4,5-tetrahydro-1,5-benzodiazepine-1-acetic acid methyl ester as a conformationally restricted dipeptido-mimetic for caspase-1 (ICE) inhibitors” (Bioorg Med Chem Lett, 2002)
pIC50, pKi: −log10 of the molar value.

Legend:
Homo sapiens = organism: Homo sapiens; assay: Ability to block the release of interleukin-1 beta from human whole blood stimulated with heat-killed staphylococcus aureus; format: functional, organism-based
Caspase-1 = molecular target: T1, Caspase-1 (Homo sapiens, UniProt P29466); assay: Compound was tested for inhibitory activity against IL-1 beta converting enzyme
T1 sequence (P29466 whole entry): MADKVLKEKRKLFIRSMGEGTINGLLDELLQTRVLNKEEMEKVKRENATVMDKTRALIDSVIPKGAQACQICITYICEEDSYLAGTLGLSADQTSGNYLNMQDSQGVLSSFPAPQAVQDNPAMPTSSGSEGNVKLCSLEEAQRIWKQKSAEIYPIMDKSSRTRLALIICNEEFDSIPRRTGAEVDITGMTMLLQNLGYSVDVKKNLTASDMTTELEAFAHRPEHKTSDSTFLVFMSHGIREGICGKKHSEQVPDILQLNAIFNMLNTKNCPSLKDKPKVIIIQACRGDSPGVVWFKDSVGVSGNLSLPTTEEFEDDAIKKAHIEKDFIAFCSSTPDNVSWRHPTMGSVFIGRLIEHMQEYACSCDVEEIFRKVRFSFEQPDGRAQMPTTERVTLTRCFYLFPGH

pKi (Caspase-1) | Structure (SMILES) | pIC50 (Homo sapiens)
 | CC(=O)N[C@@H](Cc1ccc(O)cc1)C(=O)N[C@H](C(=O)N[C@@H](C)C(=O)N[C@H]1CC(=O)OC1O)C(C)C (some centres not stated) | 5.40
7.05 | O=C(CN1C(=O)[C@@H](NC(=O)c2ccccc2)CN(C(=O)CCc2ccccc2)c2ccccc21)N[C@H]1CC(=O)OC1O (some centres not stated) | 
